Test results from publication PMC10077338, “Galangin delivered by retinoic acid-modified nanoparticles targeted hepatic stellate cells for the treatment of hepatic fibrosis” (RSC Advances, 2023).

Legend:
[1] = Pharmacokinetics after oral administration; format: in vivo, Sprague–Dawley rats
Experimental: All animal procedures were approved by the Animal Care and Use Committee of the Renmin Hospital of Wuhan University (Laboratory Animal Welfare and Ethics Committee [Institutional Animal Care and Use Committee] Issue No.: WDRM NO.20200501). […] Free GA, GA-NPs, and RA-GA-NPs were orally administered (GA concentration: 50 mg kg^−1). Subsequently, 200 μL of blood were collected at predetermined time points (i.e., 0.5, 1, 2, 4, 6, 8, 10, 12, and 24 h). The concentrations of GA in plasma were determined by HPLC. Plasma samples (200 μL) were extracted using 200 μL of acetonitrile, vortexed for 10 min, and centrifuged at 5000 rpm for 5 min. Thereafter, the supernatant was collected and filtered using a 0.45 μm nylon 66 membrane. Finally, each sample (20 μL) was injected into the HPLC system.

HF model induced by CCl4 = assay: Anti-HF effect in vivo; set-up: species or system C57BL/6 mice; conditions: 20 mg kg^−1 oral daily for 4 weeks, CCl4 mice
Experimental: Forty 6 weeks-old male C57BL/6 mice (weight: 20 ± 2 g; […]) were randomly divided into five groups (n = 8 per group): control; tetrachloromethane (CCl4)-treated; free GA; GA-NPs; and RA-GA-NPs. The HF model was induced by intraperitoneal injection with 10% CCl4 (diluted in olive oil, 5 mL per kg body weight) thrice per week for 4 consecutive weeks.[33–35] The control mice received an intraperitoneal injection with an equal volume of olive oil. The mice in all treatment groups received an injection with CCl4 for 4 weeks, as well as free GA, GA-NPs, or RA-GA-NPs (20 mg kg^−1) through oral administration once daily for 4 weeks; the dose of GA was based on previous reports.[36,37] All mice were sacrificed 12 h after the last administration, and blood specimens were collected through retro-orbital bleeding. Serum was subsequently separated by centrifugation at 3500 rpm for 15 min at 4 °C and stored at −20 °C. […] is typically used to discriminate collagen fibers from tissues on histological slides. […] The levels of ALT, AST, and Hyp were determined using detection kits, respectively, according to the instructions provided by the manufacturer. In addition, the serum levels of markers, HA, LN, PC III, and Col IV were determined using ELISA kits based on the respective protocols.

aHSC = tested on: aHSC; set-up: method as in PMID 32893252; conditions: cited from earlier work
[2] = both sexes, Sprague-Dawley, rat, plasma, GA 50 mg kg^−1, n = 6

## O=c1c(O)c(-c2ccccc2)oc2cc(O)cc(O)c12 [Free GA, 3,5,7-trihydroxyflavone]
[1]; GA 50 mg kg^−1, n = 6
  AUC: 2580 ± 470 ng·h/mL
  CL: 3.99 ± 0.73 (mg kg^−1)/h(μg mL^−1)
  V d: 20.98 ± 4.22 L/kg
[1]; GA 50 mg kg^−1, sampling up to 24 h
  time for which serum drug concentrations were detected / maintained: up to 12 h
[1]; [2]
  MRT: 5.25 ± 0.16 h
  half-life: 3.64 ± 0.11 h
HF model induced by CCl4
  effect on the biomarkers of HF (HA, LN, PC III, Col IV): modest anti-fibrotic effect
aHSC
  concentration at which inhibition of aHSC in vitro was initiated: 6 µg/mL
